Where two headings read alike, the source gives them in different places.
Experiments:
human TLR8 = human TLR8 (Homo sapiens (Human), UniProt Q9NR97); test: TLR8 inhibition reporter assay (HEK-Blue SEAP); conditions: read-out: TLR8 IC50;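 further: SEAP driven by IFN-β minimal promoter carrying NF-κB and AP-1 sites, compounds dosed 0.05 nM to 50 µM for 22 h, inhibition scaled between agonist-plus-DMSO and reference-inhibitor wells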
human TLR9 = human TLR9 (Homo sapiens (Human), UniProt Q9NR96); test: TLR9 inhibition reporter assay (HEK-Blue SEAP); conditions: read-out: TLR9 IC50;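 further: SEAP driven by an IFN-β minimal promoter with NF-κB and AP-1 sites, read after 22 h, compounds dosed 0.05 nM–50 µM, inhibition scaled between agonist plus DMSO and reference-inhibitor wells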
Chain of human TLR9 (Q9NR96 26-1032): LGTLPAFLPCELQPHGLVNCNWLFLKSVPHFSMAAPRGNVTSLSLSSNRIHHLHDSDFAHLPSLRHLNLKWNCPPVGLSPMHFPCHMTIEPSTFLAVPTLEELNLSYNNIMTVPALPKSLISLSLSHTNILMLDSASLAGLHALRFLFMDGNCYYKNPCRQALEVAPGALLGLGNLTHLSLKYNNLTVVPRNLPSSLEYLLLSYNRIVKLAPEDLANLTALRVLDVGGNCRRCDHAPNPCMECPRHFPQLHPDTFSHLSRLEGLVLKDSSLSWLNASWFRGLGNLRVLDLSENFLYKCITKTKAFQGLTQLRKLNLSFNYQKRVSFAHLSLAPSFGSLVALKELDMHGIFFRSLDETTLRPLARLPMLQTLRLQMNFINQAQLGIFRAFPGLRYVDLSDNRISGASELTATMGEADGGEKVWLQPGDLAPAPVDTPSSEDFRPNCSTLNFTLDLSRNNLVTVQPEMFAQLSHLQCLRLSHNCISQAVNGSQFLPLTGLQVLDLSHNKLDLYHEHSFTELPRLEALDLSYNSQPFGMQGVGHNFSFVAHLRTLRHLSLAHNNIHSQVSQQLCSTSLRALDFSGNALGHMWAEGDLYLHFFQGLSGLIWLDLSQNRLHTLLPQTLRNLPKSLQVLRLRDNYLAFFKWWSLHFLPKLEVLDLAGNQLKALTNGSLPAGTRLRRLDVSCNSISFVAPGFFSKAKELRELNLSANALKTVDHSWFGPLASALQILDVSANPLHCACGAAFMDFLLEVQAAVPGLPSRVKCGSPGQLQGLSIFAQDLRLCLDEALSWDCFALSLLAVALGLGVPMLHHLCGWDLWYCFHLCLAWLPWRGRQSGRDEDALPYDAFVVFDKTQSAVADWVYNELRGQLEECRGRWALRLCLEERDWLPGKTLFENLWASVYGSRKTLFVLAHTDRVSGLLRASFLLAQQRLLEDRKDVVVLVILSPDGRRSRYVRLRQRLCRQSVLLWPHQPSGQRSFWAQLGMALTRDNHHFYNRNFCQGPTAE

human TLR7 = human TLR7 (Homo sapiens (Human), UniProt Q9NYK1); test: TLR7 inhibition reporter assay (HEK-Blue SEAP); format: cell-based
Chain of human TLR7 (Q9NYK1 27-1049): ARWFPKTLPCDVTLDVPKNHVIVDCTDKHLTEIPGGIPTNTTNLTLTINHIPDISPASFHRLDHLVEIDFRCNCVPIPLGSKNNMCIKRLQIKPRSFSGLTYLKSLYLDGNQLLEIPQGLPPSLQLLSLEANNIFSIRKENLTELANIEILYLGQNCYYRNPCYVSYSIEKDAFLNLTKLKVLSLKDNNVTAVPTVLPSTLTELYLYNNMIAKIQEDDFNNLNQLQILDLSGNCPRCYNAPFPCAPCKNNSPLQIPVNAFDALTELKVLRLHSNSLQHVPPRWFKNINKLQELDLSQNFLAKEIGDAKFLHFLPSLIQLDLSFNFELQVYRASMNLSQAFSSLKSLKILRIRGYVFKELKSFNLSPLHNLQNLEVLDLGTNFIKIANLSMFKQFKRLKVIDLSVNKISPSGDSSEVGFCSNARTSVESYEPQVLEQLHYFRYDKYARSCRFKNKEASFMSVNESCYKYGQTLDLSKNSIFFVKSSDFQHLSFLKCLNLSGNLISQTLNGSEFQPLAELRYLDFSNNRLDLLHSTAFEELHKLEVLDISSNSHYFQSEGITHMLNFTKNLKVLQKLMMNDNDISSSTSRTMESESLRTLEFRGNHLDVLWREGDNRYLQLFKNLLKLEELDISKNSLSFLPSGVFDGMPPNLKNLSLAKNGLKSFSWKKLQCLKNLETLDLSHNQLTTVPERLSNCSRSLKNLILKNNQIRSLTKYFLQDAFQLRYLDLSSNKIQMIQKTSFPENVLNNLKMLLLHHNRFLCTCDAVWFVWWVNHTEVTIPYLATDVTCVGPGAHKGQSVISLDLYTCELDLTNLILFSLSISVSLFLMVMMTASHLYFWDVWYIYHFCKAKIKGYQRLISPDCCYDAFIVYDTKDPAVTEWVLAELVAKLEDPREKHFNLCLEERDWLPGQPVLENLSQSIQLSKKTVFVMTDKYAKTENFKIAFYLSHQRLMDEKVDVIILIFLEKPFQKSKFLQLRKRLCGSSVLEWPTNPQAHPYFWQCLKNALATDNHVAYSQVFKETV

[1] = HEK-Blue cells overexpressing human TLR8, R848 15.9 μM stimulation, SEAP reporter
[2] = HEK-Blue cells overexpressing human TLR9, ODN2006 5 nM stimulation, SEAP reporter
[3] = HEK-Blue cells overexpressing human TLR7, gardiquimod 7.5 μM stimulation, SEAP reporter
[4] = HEK-Blue human TLR8 cells, R848 15.9 μM
[5] = HEK-Blue human TLR9 cells, ODN2006 5 nM
[6] = HEK-Blue human TLR7 cells, gardiquimod 7.5 μM
[7] = HEK-Blue cells overexpressing human TLR8, SEAP reporter, R848 15.9 μM
[8] = HEK-Blue cells overexpressing human TLR9, SEAP reporter, ODN2006 5 nM
[9] = HEK-Blue cells overexpressing human TLR7, SEAP reporter, gardiquimod 7.5 μM

Chain of human TLR8 (Q9NR97 27-1041): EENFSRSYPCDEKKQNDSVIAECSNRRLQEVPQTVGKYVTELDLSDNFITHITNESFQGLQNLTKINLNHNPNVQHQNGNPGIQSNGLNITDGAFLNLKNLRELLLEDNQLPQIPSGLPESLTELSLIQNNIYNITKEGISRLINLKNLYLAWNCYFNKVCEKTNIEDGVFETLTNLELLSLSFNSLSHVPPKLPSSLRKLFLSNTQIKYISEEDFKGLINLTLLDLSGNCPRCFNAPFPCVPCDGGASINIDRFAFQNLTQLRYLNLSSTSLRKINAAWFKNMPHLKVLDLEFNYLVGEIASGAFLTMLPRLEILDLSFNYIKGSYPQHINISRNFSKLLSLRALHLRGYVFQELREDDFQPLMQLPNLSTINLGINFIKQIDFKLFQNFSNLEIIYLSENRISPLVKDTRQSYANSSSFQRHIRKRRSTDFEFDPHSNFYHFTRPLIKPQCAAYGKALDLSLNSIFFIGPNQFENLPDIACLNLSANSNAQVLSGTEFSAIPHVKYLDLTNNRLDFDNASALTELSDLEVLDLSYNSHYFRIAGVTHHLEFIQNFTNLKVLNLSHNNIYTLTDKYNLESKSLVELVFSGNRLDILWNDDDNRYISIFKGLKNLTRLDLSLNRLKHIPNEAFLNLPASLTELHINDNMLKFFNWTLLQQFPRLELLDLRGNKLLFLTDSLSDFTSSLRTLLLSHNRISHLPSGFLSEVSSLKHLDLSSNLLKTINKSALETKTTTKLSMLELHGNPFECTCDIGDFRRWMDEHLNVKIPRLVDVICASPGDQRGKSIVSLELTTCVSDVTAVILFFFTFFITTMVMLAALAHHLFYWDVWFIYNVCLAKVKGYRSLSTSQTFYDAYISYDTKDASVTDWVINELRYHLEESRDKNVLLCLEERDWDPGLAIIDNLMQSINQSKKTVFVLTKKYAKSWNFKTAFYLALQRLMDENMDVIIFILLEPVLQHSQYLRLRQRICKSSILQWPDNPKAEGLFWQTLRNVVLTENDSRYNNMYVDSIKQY

Structure (SMILES) | IC50 (human TLR8; [1]) | IC50 (human TLR9; [2]) | IC50 (human TLR8; [7]) | IC50 (human TLR9; [8]) | also measured
COc1cc(-c2[nH]c3ccc(C4CCC(N5CC6(C5)CS(=O)(=O)C6)CC4)nc3c2C(C)C)cn2ncnc12 (stereo not drawn) [Example 253] | 0.72 nM | 1150 nM |  |  | IC50 (human TLR7; [3]): 0.65 nM
Cc1c(-c2[nH]c3ccc(C4CCC(N5CCC5)CC4)nc3c2C(C)C)cn2ncnc2c1C (stereo not drawn) [Example 386] | 4.2 nM | 1440 nM |  |  | IC50 (human TLR7; [3]): 1.5 nM
COc1cc(-c2[nH]c3ccc(N4CC5(CNC5)C4)nc3c2C(C)C)cn2ncnc12 [Example 1016] |  |  |  |  | IC50 (human TLR8; [4]): 38 nM; IC50 (human TLR9; [5]): 641 nM; IC50 (human TLR7; [6]): 2.9 nM
Cc1c(-c2[nH]c3ccc(N4CCN(C(=O)CN5CC6(CCOC6)C5)CC4)nc3c2C(C)C)cn2ncnc2c1C [Example 956] |  |  |  |  | IC50 (human TLR8; [4]): 1.9 nM; IC50 (human TLR9; [5]): 9650 nM; IC50 (human TLR7; [6]): 1 nM
Cc1c(-c2[nH]c3ccc(N4CCN(C(=O)CN5CCC(F)C5)CC4)nc3c2C(C)C)cn2ncnc2c1C (stereo not drawn) [Example 917] |  |  |  |  | IC50 (human TLR8; [4]): 2.9 nM; IC50 (human TLR9; [5]): 43200 nM
Cc1c(-c2[nH]c3ccc(N4C[C@H]5C[C@@H](C4)N5C(=O)CN(C)C)nc3c2C(C)C)cn2ncnc2c1C [Example 754] |  |  | 1.7 nM | 5430 nM | 
CC(C)c1c(-c2cc(CO)c3ncnn3c2)[nH]c2ccc(C3CCC(NCC(=O)N(C)C)CC3)nc12 (stereo not drawn) [Example 216] | 18 nM | 416 nM |  |  | 
Cc1c(-c2[nH]c3ccc(C4CCC(N(C)Cc5ncccn5)CC4)nc3c2C(C)C)cn2ncnc2c1C (stereo not drawn) [Example 418] |  |  | 3.9 nM | 2860 nM | 
Cc1c(-c2[nH]c3ccc(C4CCC(N(CCO)CC(=O)N(C)C)CC4)nc3c2C(C)C)cn2ncnc2c1C (stereo not drawn) [Example 468] |  |  | 99 nM |  | IC50 (human TLR7; [9]): 46 nM
CC(C)c1c(-c2cn(C)c3ncccc23)[nH]c2ccc(N3CCC(N(CC#N)CC#N)CC3)nc12 [Example 52] | 20 nM |  |  |  | IC50 (human TLR7; [3]): 7.9 nM
Cc1c(-c2[nH]c3ccc(N4CC(N5CCOCC5)C4)nc3c2C(C)C)cn2ncnc2c1C [Example 39, 4-(1-(2-(7,8-dimethyl-[1,2,4]triazolo[1,5-a]pyridin-6-yl)-3-isopropyl-1H-pyrrolo[3,2-b]pyridin-5-yl)azetidin-3-yl)morpholine] | 4.8 nM |  |  |  | IC50 (human TLR7; [3]): 40 nM
Cc1c(-c2[nH]c3ccc(C4CCC(N5CCN(C)C(=O)C5)CC4)nc3c2C(C)C)cn2ncnc2c1C (stereo not drawn) [Example 443] |  |  | 57 nM |  | IC50 (human TLR7; [9]): 15 nM
Cc1c(-c2[nH]c3ccc(C4CCC(N5CC(C#N)C5)CC4)nc3c2C(C)C)cn2ncnc2c1C (stereo not drawn) [Example 436] |  |  | 27 nM | 8940 nM | 
CC(C)c1c(-c2cc(CO)c3ncnn3c2)[nH]c2ccc(C3CCC(NCC(=O)N(C)C)CC3)nc12 (stereo not drawn) [Example 222] | 21 nM | 657 nM |  |  | 
Cc1c(-c2[nH]c3ccc(C4CCC(N5CC6(COC6)C5)CC4)nc3c2C(C)C)cn2ncnc2c1C (stereo not drawn) [Example 437] |  |  | 11 nM | 3750 nM | 
Cc1c(-c2[nH]c3ccc(N4C[C@H]5C[C@@H](C4)N5C(C)C)nc3c2C(C)C)cn2ncnc2c1C [Example 755] |  |  | 6.2 nM | 3730 nM | 
COc1cc(-c2[nH]c3cc(C)c(C4CCC(NCC(C)(C)O)CC4)nc3c2C(C)C)cn2ncnc12 (stereo not drawn) [Example 321] | 3 nM | 1040 nM |  |  | 
Cc1c(-c2[nH]c3ccc(N4CCN(C(=O)CN5CC6(CCO6)C5)CC4)nc3c2C(C)C)cn2ncnc2c1C [Example 918] |  |  |  |  | IC50 (human TLR8; [4]): 6.3 nM; IC50 (human TLR9; [5]): 20600 nM
Cc1c(-c2[nH]c3ccc(C4CCC(N(C)Cc5ncccn5)CC4)nc3c2C(C)C)cn2ncnc2c1C (stereo not drawn) [Example 417] |  |  | 7.1 nM | 9500 nM | 
COc1cc(-c2[nH]c3ccc(C4CCC(NCC5(S(C)(=O)=O)CC5)CC4)nc3c2C(C)C)cn2ncnc12 (stereo not drawn) [Example 223] | 1.4 nM | 485 nM |  |  | 
Cc1cnc(CNC2CCC(c3ccc4[nH]c(-c5cc(CO)c6ncnn6c5)c(C(C)C)c4n3)CC2)cn1 (stereo not drawn) [Example 217] | 8.6 nM | 522 nM |  |  | 
Cc1cc(-c2[nH]c3ccc(C4CCN(C5COC5)CC4)nc3c2C(C)C)cn(C)c1=O [Example 528] |  |  | 23 nM | 5700 nM | 
COc1cc(-c2[nH]c3ccc(N4CCN(C5CCOC5)CC4)nc3c2C(C)C)cn2ncnc12 (stereo not drawn) [Example 103] | 2.6 nM |  |  |  | IC50 (human TLR7; [3]): 7.3 nM
COCCNC1CCC(c2nc3c(C(C)C)c(-c4cc(OC)c5ncnn5c4)[nH]c3cc2C)CC1 (stereo not drawn) [Example 335] | 4 nM | 1930 nM |  |  | 
Cc1c(-c2[nH]c3ccc(C4CCC(N5CC6(COC6)C5)CC4)nc3c2C(C)C)cn2ncnc2c1C (stereo not drawn) [Example 435] |  |  | 5.5 nM | 2180 nM | 
